Measured values reported in patent EP4737457A1, “POLYSUBSTITUTED MACROCYCLIC COMPOUND, AND PREPARATION METHOD THEREFOR AND USE THEREOF” (Shenzhen Salubris Pharmaceuticals Co., Ltd., priority 2023, dated 2025).

Assays:
Human Factor XIa = Human Factor XIa (Homo sapiens, UniProt P03951); assay: Inhibition of human coagulation Factor XIa by absorbance method (S-2366 substrate, 405 nm); type: biochemical; details: incubated at 37 °C for 20 minutes; substrate 800 µM; read-out: Recombinant Enzyme FXIa IC50
Human Factor XIa, sequence (P03951 388-625 limits assumed): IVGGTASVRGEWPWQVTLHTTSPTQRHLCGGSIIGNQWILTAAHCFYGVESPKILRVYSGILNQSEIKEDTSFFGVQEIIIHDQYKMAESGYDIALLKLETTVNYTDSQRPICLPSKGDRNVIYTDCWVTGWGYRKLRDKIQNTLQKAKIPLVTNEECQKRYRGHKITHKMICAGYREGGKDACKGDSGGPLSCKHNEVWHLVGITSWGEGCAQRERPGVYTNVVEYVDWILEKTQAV
Human Factor XIa, sequence (P03951 19-387 partner limits assumed): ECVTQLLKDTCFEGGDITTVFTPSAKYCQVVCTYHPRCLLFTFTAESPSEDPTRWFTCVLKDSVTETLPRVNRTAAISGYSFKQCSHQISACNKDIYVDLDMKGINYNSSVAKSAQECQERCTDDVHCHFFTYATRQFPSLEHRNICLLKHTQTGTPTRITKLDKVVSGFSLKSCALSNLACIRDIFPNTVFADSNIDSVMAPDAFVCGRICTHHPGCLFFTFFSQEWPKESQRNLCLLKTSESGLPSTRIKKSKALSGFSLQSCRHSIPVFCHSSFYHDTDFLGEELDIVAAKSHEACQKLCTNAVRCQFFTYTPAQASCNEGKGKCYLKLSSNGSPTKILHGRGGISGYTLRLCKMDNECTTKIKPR
Experimental: • Enzyme: Human Factor XIa (ENZYME […], Cat. No. HFXIa 1111a) • Substrate: S-2366™ (CHROMOGENIX, Cat. No. 82109039) • Buffer: 145 mM NaCl, 5 mM KCl, 1 mg/mL PEG 8000, 30 mM HEPES, pH 7.4.
Test compounds dissolved in 100% DMSO at 10 mM were diluted with 100% DMSO to concentrations of 1000 µM, 200 µM, 40 µM, 8 µM, 1.6 µM, 0.32 µM, 0.064 µM, 0.0128 µM, 0.00256 µM, and […]. Then 98 µL of FXIa enzyme solution (77.7 ng/mL) was added to each well of a 96-well plate, with 98 µL of buffer added to blank wells instead. Then, 2 µL of compound at different concentrations was added; DMSO was used instead for blank and control wells. The plate was mixed using a plate shaker and incubated at 37 °C for 20 minutes.
Finally, 100 µL of substrate (800 µM) was added to each well, and the absorbance was measured at 405 nm.
Curve fitting was performed using GraphPad Prism software to calculate the IC50 values.

Pooled human plasma = assay: In vitro anticoagulant effect in human plasma (aPTT, EC1.5x); type: biochemical; details: 37 °C for 10 minutes
Experimental: aPTT (Lot 220106600), Calcium Chloride (Lot 210305600), Needle Rinse Solution (Lot 211101300): produced by Shenzhen Mindray Bio-Medical Electronics Co., Ltd. Pooled human plasma: collected from healthy individuals using disposable venous blood collection tubes (Liuyang Sanli Medical Technology Development Co., Ltd., Lot 211108, sodium citrate 9:1). Blood was collected, centrifuged at room temperature at 3000 rpm for 10 minutes, and the supernatant was collected and stored for use (Lot 20220606).
Test compounds dissolved in 100% DMSO at 10 mM were diluted with 100% DMSO to concentrations of 0.29 µM, 0.59 µM, 1.17 µM, 2.34 µM, 4.69 µM, 9.38 µM, 18.75 µM, and 37.50 µM. Then 99 µL of pooled human plasma was added to each 1.5 mL centrifuge tube, followed by the addition of 1 µL of compound at different concentrations; 1 µL of DMSO was added to the blank control. The tubes were mixed by repeated manual inversion, centrifuged briefly using a mini centrifuge to collect the samples, and then incubated in a thermostatic water bath at 37 °C for 10 minutes with mixing. The aPTT was measured using a fully automated coagulation analyzer according to the preset program.
Curve fitting was performed using GraphPad Prism software to calculate EC1.5x.

[1] = Pharmacokinetic experiment in rats (iv and PO); details: male, Sprague-Dawley (SD), rat, plasma, 5 mg/kg
Text: Polyethylene glycol 400 (PEG-400, Lot GORKREUT, Shaen Chemical Technology (Shanghai) Co., Ltd.), DMSO (Lot 20200319, Guangdong Guanghua Sci-Tech Co., Ltd.), normal saline (Lot C20052604, Jiangxi Kelun Pharmaceutical Co., Ltd.). LC-MS instrument (Thermo Fisher Ultimate 3000 UPLC, TSQ QUANTUM ULTRA triple quadrupole mass spectrometer, AB SCIEX 5500 QTARP).
SD rats: Male, 180-250 g, purchased from Guangdong Vital River Laboratory Animal Technology Co., Ltd.
The test compound powder was accurately weighed, completely dissolved in DMSO, then PEG-400 was added. The mixture was vortexed and sonicated to mix, followed by the addition of normal saline. The mixture was vortexed and sonicated again to achieve a final concentration of 0.5 mg/mL (DMSO:PEG-400:NS = 5:60:35, V/V/V). The dosing volume was 10 mL/kg for oral gavage and 0.5 mL/kg for intravenous administration.
After intravenous or oral administration to rats, 200 µL of venous blood was collected at 5 min (not collected for oral group), 15 min, 30 min, 1 h, 2 h, 5 h, 7 h, and 24 h into heparinized EP tubes. The blood was centrifuged at 12,000 rpm for 2 minutes, and the plasma was collected and stored at -80 °C until analysis.
A precise amount of the test compound was weighed and dissolved in DMSO to 1 mg/mL as a stock solution. An appropriate volume of the compound stock solution was accurately pipetted and diluted with acetonitrile to prepare standard series solutions. 20 µL of each standard series solution was accurately pipetted and added to 180 µL of blank plasma, vortexed to mix, to prepare plasma samples equivalent to plasma concentrations of 1 ng/mL, 3 ng/mL, 10 ng/mL, 30 ng/mL, 100 ng/mL, 300 ng/mL, 1000 ng/mL, 3000 ng/mL, and 5000 ng/mL. Each concentration was analyzed in duplicate to establish the standard curve. 20 µL of plasma sample was taken, and 200 µL of an internal standard (propranolol, 5 ng/mL) in acetonitrile solution was added. The mixture was vortexed and centrifuged at 4000 rpm for 5 minutes. The supernatant was taken for LC-MS analysis. The LC-MS detection conditions were as follows: Chromatographic Column: Waters ACQUITY™ PREMIER HSS T3, 50*2.1 mm, 1.8 µm.
Mobile phase A: water (0.1% formic acid), mobile phase B: acetonitrile, flow rate: 0.5 mL/min, gradient elution: see Table 2 below.
After determining the plasma drug concentration by LC-MS, the pharmacokinetic parameters following administration to rats were calculated using the non-compartmental model in WinNonlin 6.1 software.

| SMILES | IC50 (Human Factor XIa) | bioavailability [1] | Human Plasma APTT 1.5x (Pooled human plasma) |
| --- | --- | --- | --- |
| [2H]C([2H])([2H])n1ncc2c1-c1cc(F)c(F)c(c1)[C@@H](n1cnc(-c3cc(Cl)ccc3-n3cc(C(F)(F)F)nn3)cc1=O)CCC[C@@H](C)C(=O)N2 [Compound 2, (3R,7R)-3-(4-(5-chloro-2-(4-(trifluoromethyl)-1H-1,2,3-triazol-1-yl)phenyl) -6-oxopyrimidin-1(6H)-yl)-2^42^5-difluoro-7-methyl-1^1-(methyl-d3)-1^1H-9-aza-1(5,4)-pyrazola-2(1,3)-benzenacyclononaphan-8-one] | 360 pM | – | 0.24 µM |
| [2H]C([2H])([2H])n1ncc2c1-c1cc(F)c(F)c(c1)[C@@H](n1ccc(-c3cc(Cl)ccc3-n3cc(C(F)(F)F)nn3)c(Cl)c1=O)CCC[C@@H](C)C(=O)N2 [Compound 8, (3S,7R)-3-(4-(5-chloro-2-(4-(trifluoromethyl)-1H-1,2,3-triazol-1-yl)phenyl) -3-chloro-2-oxopyridin-1(2H)-yl)-2^4,2^5-difluoro-7-methyl-1^1-(methyl-d3)-1^1H-9-aza-1(5,4)-p yrazola-2(1,3)-benzenacyclononaphan-8-one] | 150 pM | – | – |
| [2H]C([2H])([2H])n1ncc2c1-c1cc(F)c(F)c(c1)[C@@H](n1ncc(-c3c(-n4cc(C(F)(F)F)nn4)ccc(Cl)c3F)c(Cl)c1=O)CCC[C@@H](C)C(=O)N2 [Compound 6, (3S,7R)-3-(5-chloro-4-(3-chloro-2-fluoro-6-(4-(trifluoromethyl)-1H-1,2,3-triazol-1-yl)phenyl)-6-oxopyridazin-1(6H)-yl)-2^42^5-difluoro-7-methyl-1^1-(methyl-d3)-1^1H-9-aza-1(5,4)-pyrazola-2(1,3)-benzenacyclononaphan-8-one] | 1060 pM | 14.1% | 0.43 µM |
| [2H]C([2H])([2H])n1ncc2c1-c1cc(F)c(F)c(c1)[C@@H](n1ncc(-c3cc(Cl)ccc3-n3cc(C(F)(F)F)nn3)cc1=O)CCC[C@@H](C)C(=O)N2 [Compound 5, (3S,7R)-3-(4-(5-chloro-2-(4-(trifluoromethyl)-1H-1,2,3-triazol-1-yl)phenyl) -6-oxopyridazin-1(6H)-yl)-2^4,2^5-difluoro-7-methyl-1^1-(methyl-d3)-1^1H-9-aza-1(5,4)-pyrazola-2(1,3)-benzenacyclononaphan-8-one] | 890 pM | – | 0.83 µM |
| [2H]C([2H])([2H])n1ncc2c1-c1cc(F)c(F)c(c1)[C@@H](n1ccc(-c3cc(Cl)ccc3-n3cc(C(F)(F)F)nn3)cc1=O)CCC[C@@H](C)C(=O)N2 [Compound 7, (3S,7R)-3-(4-(5-chloro-2-(4-(trifluoromethyl)-1H-1,2,3-triazol-1-yl)phenyl) -2-oxopyridin-1(2H)-yl)-2^4,2^5-difluoro-7-methyl-1^1-(methyl-d3)-1^1H-9-aza-1(5,4)-pyrazola-2 (1,3)-benzenacyclononaphan-8-one] | 340 pM | – | 0.22 µM |
| [2H]C([2H])([2H])n1ncc2c1-c1cc(F)c(F)c(c1)[C@@H](n1cnc(-c3c(-n4cc(Cl)nn4)ccc(Cl)c3F)cc1=O)CCC[C@@H](C)C(=O)N2 [Compound 3, (3S,7R)-3-(4-(3-chloro-6-(4-chloro-1H-1,2,3-triazol-1-yl)-2-fluorophenyl)-6-oxopyrimidin-1(6H)-yl)-2^4,2^5-difluoro-7-methyl-1^1-(methyl-d3)-1^1H-9-aza-1(5,4)-pyrazola-2(1,3)-benzenacyclononaphan-8-one] | 610 pM | 15.7% | 0.24 µM |

More lines, main results first:

| IC50 (Human Factor XIa) | bioavailability [1] | SMILES | Human Plasma APTT 1.5x (Pooled human plasma) |
| --- | --- | --- | --- |
| 300 pM | – | [2H]C([2H])([2H])n1ncc2c1-c1cc(F)c(F)c(c1)[C@@H](n1ccc(-c3cc(Cl)ccc3-n3cc(C(F)(F)F)nn3)c(F)c1=O)CCC[C@@H](C)C(=O)N2 [Compound 9, (3S,7R)-3-(4-(5-chloro-2-(4-(trifluoromethyl)-1H-1,2,3-triazol-1-yl)phenyl)-3-fluoro-2-oxopyridin-1(2H)-yl)-2^4,2^5-difluoro-7-methyl-1^1-(methyl-d3)-1^1H-9-aza-1 (5,4)-pyrazola-2(1,3)-benzenacyclononaphan-8-one] | – |
| 290 pM | 21.6% | C[C@@H]1CCC[C@H](n2cnc(-c3c(-n4cc(C(F)(F)F)nn4)ccc(Cl)c3F)cc2=O)c2cc(cc(F)c2F)-c2c(cnn2C(F)F)NC1=O [Compound 11, (3S,7R)-3-(4-(3-chloro-2-fluoro-6-(4-(trifluoromethyl)-1H-1,2,3-triazol-1-yl)phenyl)-6-oxopyrimidin-1(6H)-yl)-2^4,2^5-difluoro-7-methyl-1^1-difluoromethyl-1^1H-9-aza-1 (5,4)-pyrazola-2(1,3)-benzenacyclononaphan-8-one] | 0.23 µM |
| 770 pM | – | [2H]C([2H])([2H])n1ncc2c1-c1cc(F)c(F)c(c1)[C@@H](n1ccc(-c3cc(Cl)ccc3-n3cc(C(F)F)nn3)cc1=O)CCC[C@@H](C)C(=O)N2 [Compound 10, (3S,7R)-3-(4-(5-chloro-2-(4-(difluoromethyl)-1H-1,2,3-triazol-1-yl)phenyl)-2-oxopyridin-1(2H)-yl)-2^4,2^5-difluoro-7-methyl-1^1-(methyl-d3)-1^1H-9-aza-1(5,4)-pyrazola-2(1,3)-benzenacyclononaphan-8-one] | 0.20 µM |
| 400 pM | – | C[C@@H]1CCC[C@H](n2cnc(-c3c(-n4cc(Cl)nn4)ccc(Cl)c3F)cc2=O)c2cc(cc(F)c2F)-c2c(cnn2C(F)F)NC1=O [Compound 13, (3S,7R)-3-(4-(3-chloro-6-(4-chloro-1H-1,2,3-triazol-1-yl)-2-fluorophenyl)-6-oxopyrimidin-1(6H)-yl)-2^4,2^5-difluoro-7-methyl-1^1-difluoromethyl-1^1H-9-aza-1(5,4)-pyraz ola-2(1,3)-benzenacyclononaphan-8-one] | – |
| 380 pM | – | C[C@@H]1CCC[C@H](n2cnc(-c3cc(Cl)ccc3-n3cc(Cl)nn3)cc2=O)c2cc(cc(F)c2F)-c2c(cnn2C(F)F)NC1=O [Compound 14, (3S,7R)-3-(4-(5-chloro-2-(4-chloro-1H-1,2,3-triazol-1-yl)phenyl)-6-oxopyrimidin-1(6H)-yl)-2^4,2^5-difluoro-7-methyl-1^1-difluoromethyl-1^1H-9-aza-1(5,4)-pyrazol a-2(1,3)-benzenacyclononaphan-8-one] | – |
